Results taken from PubChem BioAssay AID624269 (Broad Institute, 2012).
Activity calls are given as the source filed them. The rule behind the calls is not given here.

Tested on: not listed separately
Experiment: Vibrio cholerae BH1651 luxOD47E, luciferase light induction, confirmatory dose response (AID 624269)
Details: Vibrio cholerae BH1651 luxOD47E, luciferase light induction, 6 h; at 8 µM (top of the series)
For `O=c1ncn(-c2cccc(Cl)c2)c2ccccc12`, the activation was 0% (inactive). For `CCCn1nnnc1NCc1ccccc1Cl`, the activation was 0% (inactive).

Same assay, conditions: Vibrio cholerae BH1651 luxOD47E, luciferase light induction, 6 h; at 35 µM (top of the series)
For `CCCn1nnnc1NCc1ccc(N(CC)CC)cc1`, the activation was 0% (inactive). With `CCOc1ccc(Nc2ccc3nonc3c2[N+](=O)[O-])cc1` the activation was 0% (inactive). For `COc1ccccc1NC(=O)COC(=O)c1cc2c(s1)CCC2`, the activation was 0% (inactive). In the case of `CCn1nnc(NCc2ccc(C)cc2)n1`, the activation is reported as 0% (inactive). With `CCCn1nnnc1NCc1ccc(N2CCCC2)cc1` the activation was -50% (inactive). With `CCn1c(CC(=O)Nc2cccc(Cl)c2Cl)nnc1SCCOc1ccc(OC)cc1` the activation was -50% (inactive). With `COc1ccc(Cl)cc1NC(=O)COC(=O)c1ccc(C)o1` the activation was 0% (inactive). With `Cc1ccc(CC(=O)NC2CCCC2)cc1` the activation was 0% (inactive). For `CCn1nnnc1NCc1ccc(N2CCCC2)cc1`, the activation was 66.7% (inactive). With `CCCn1nnnc1NCc1ccc(C(C)C)cc1` the activation was 33.3% (inactive). For `COc1ccccc1NC(=O)COC(=O)c1ccc(C)cc1`, the activation was 0% (inactive). For `COc1ccccc1NC(=O)COC(=O)c1oc2ccccc2c1C`, the activation was 0% (inactive). In the case of `CCC(C)NC(=O)Cc1ccc(-c2ccccc2)cc1` (stereo not given), the activation is reported as -33.3% (inactive). With `Cc1c(Cl)cccc1-n1cnc(=O)c2ccccc21` the activation was 50% (inactive).

Tested on: Vibrio cholerae BH1651 luxOD47E, luciferase light induction, 6 h
Experiment: as above
Details: not given
For `Cc1ccc2cc3c(NC(=O)c4ccco4)nn(C)c3nc2c1`, the AC40 was > 35000 nM (inactive). `O=C(Nc1nnc(-c2ccc3c(c2)OCCO3)o1)C1CCCCC1` showed an AC40 of 0.865 nM. With `Cc1ccc(OCCNC(=O)c2cccc(C)c2)cc1` the AC40 was 312 nM. For `O=C(Cc1ccc(-c2ccccc2)cc1)NC1CCCC1`, the AC40 was 239 nM.
